Test results as given in US8513238B2 (Hoffmann-La Roche Inc., priority 2010, dated 2013).
Counter-ions that a name gives are not always drawn.

Molecular target: T1, human V1a receptor (Homo sapiens, UniProt P37288)
T1 construct: expressed in transfected cells; host or cells: HEK293 cells, transiently transfected; membranes prepared
Test: human V1a receptor binding (3H-Vasopressin SPA, HEK293 membranes)
Conditions: membranes of HEK293 cells transiently transfected with human V1a receptor, Ki by Cheng-Prussoff, read-out: pKi (hV1a) (converted)
Procedure, shortened: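 HEK293 membranes transiently expressing cloned human V1a receptor, bound to yttrium silicate SPA beads in Tris/NaCl/KCl/CaCl2/MgCl2 buffer. Test compounds in 2% DMSO competed with 3H-vasopressin (4 nM solution added) for 1 h at room temperature; non-specific binding defined with cold vasopressin. IC50 from non-linear fit, Ki via Cheng-Prusoff.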

T1 sequence (P37288 whole entry): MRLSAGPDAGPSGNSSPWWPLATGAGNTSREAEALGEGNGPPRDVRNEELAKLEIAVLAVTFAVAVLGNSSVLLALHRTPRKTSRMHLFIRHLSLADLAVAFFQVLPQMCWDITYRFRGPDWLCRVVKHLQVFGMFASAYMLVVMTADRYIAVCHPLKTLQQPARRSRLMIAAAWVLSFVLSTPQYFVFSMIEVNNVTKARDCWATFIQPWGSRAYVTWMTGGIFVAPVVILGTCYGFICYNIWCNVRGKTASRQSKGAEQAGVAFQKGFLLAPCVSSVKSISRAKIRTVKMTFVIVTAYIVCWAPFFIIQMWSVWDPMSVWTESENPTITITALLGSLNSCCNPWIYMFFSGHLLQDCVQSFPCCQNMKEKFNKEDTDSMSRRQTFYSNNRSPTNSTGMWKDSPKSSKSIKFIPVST

Row | SMILES | Ki [µM]
1 | Cc1nc([C@H]2CC[C@H](c3nnc4n3-c3ccc(Cl)cc3CN(S(C)(=O)=O)C4)CC2)no1 [Example 81, trans-8-Chloro-5-methanesulfonyl-1-[4-(5-methyl-[1,2,4]oxadiazol-3-yl)-cyclohexyl]-5,6-dihydro-4H-2,3,5,10b-tetraaza-benzo[e]azulene] | 0.00427
2 | Cc1nc([C@H]2CC[C@@H](c3nnc4n3-c3ccc(Cl)cc3CN(C(=O)OC(C)(C)C)C4)CC2)no1 [Example 82, cis-8-Chloro-1-[4-(5-methyl-[1,2,4]oxadiazol-3-yl)-cyclohexyl]-4H,6H-2,3,5,10b-tetraaza-benzo[e]azulene-5-carboxylic acid tert-butyl ester] | 0.0148
3 | Cc1nc([C@H]2CC[C@@H](c3nnc4n3-c3ccc(Cl)cc3CNC4)CC2)no1 [Example 83, cis-8-Chloro-1-[4-(5-methyl-[1,2,4]oxadiazol-3-yl)-cyclohexyl]-5,6-dihydro-4H-2,3,5,10b-tetraaza-benzo[e]azulene hydrochloride] | 0.617
4 | Cc1nc([C@H]2CC[C@@H](c3nnc4n3-c3ccc(Cl)cc3CN(C)C4)CC2)no1 [Example 84, cis-8-Chloro-5-methyl-1-[4-(5-methyl-[1,2,4]oxadiazol-3-yl)-cyclohexyl]-5,6-dihydro-4H-2,3,5,10b-tetraaza-benzo[e]azulene] | 0.135
5 | CCc1nc([C@H]2CC[C@@H](c3nnc4n3-c3ccc(Cl)cc3CN(C(=O)OC(C)(C)C)C4)CC2)no1 [Example 85, cis-8-Chloro-1-[4-(5-ethyl-[1,2,4]oxadiazol-3-yl)-cyclohexyl]-4H,6H-2,3,5,10b-tetraaza-benzo[e]azulene-5-carboxylic acid tert-butyl ester] | 0.0407
6 | CCc1nc([C@H]2CC[C@H](c3nnc4n3-c3ccc(Cl)cc3CN(C(=O)OC(C)(C)C)C4)CC2)no1 [Example 86, trans-8-Chloro-1-[4-(5-ethyl-[1,2,4]oxadiazol-3-yl)-cyclohexyl]-4H,6H-2,3,5,10b-tetraaza-benzo[e]azulene-5-carboxylic acid tert-butyl ester] | 0.00309
7 | CCc1nc([C@H]2CC[C@H](c3nnc4n3-c3ccc(Cl)cc3CNC4)CC2)no1 [Example 87, trans-8-Chloro-1-[4-(5-ethyl-[1,2,4]oxadiazol-3-yl)-cyclohexyl]-5,6-dihydro-4H-2,3,5,10b-tetraaza-benzo[e]azulene hydrochloride] | 0.145
8 | CCc1nc([C@H]2CC[C@H](c3nnc4n3-c3ccc(Cl)cc3CN(C)C4)CC2)no1 [Example 88] | 0.0145
9 | CCc1nc([C@H]2CC[C@@H](c3nnc4n3-c3ccc(Cl)cc3CNC4)CC2)no1 [Example 89, cis-8-Chloro-1-[4-(5-ethyl-[1,2,4]oxadiazol-3-yl)-cyclohexyl]-5,6-dihydro-4H-2,3,5,10b-tetraaza-benzo[e]azulene hydrochloride] | 2.75
10 | CCc1nc([C@H]2CC[C@@H](c3nnc4n3-c3ccc(Cl)cc3CN(C)C4)CC2)no1 [Example 90] | 0.295
11 | CC(C)c1nc([C@H]2CC[C@@H](c3nnc4n3-c3ccc(Cl)cc3CN(C(=O)OC(C)(C)C)C4)CC2)no1 [Example 91, cis-8-Chloro-1-[4-(5-isopropyl-[1,2,4]oxadiazol-3-yl)-cyclohexyl]-4H,6H-2,3,5,10b-tetraaza-benzo[e]azulene-5-carboxylic acid tert-butyl ester] | 0.0347
12 | CC(C)c1nc([C@H]2CC[C@H](c3nnc4n3-c3ccc(Cl)cc3CN(C(=O)OC(C)(C)C)C4)CC2)no1 [Example 92, trans-8-Chloro-1-[4-(5-isopropyl-[1,2,4]oxadiazol-3-yl)-cyclohexyl]-4H,6H-2,3,5,10b-tetraaza-benzo[e]azulene-5-carboxylic acid tert-butyl ester] | 0.00309
13 | CC(C)c1nc([C@H]2CC[C@H](c3nnc4n3-c3ccc(Cl)cc3CNC4)CC2)no1 [Example 93, trans-8-Chloro-1-[4-(5-isopropyl-[1,2,4]oxadiazol-3-yl)-cyclohexyl]-5,6-dihydro-4H-2,3,5,10b-tetraaza-benzo[e]azulene hydrochloride] | 0.263
14 | CC(C)c1nc([C@H]2CC[C@H](c3nnc4n3-c3ccc(Cl)cc3CN(C)C4)CC2)no1 [Example 94] | 0.0195
15 | CC(C)c1nc([C@H]2CC[C@@H](c3nnc4n3-c3ccc(Cl)cc3CNC4)CC2)no1 [Example 95, cis-8-Chloro-1-[4-(5-isopropyl-[1,2,4]oxadiazol-3-yl)-cyclohexyl]-5,6-dihydro-4H-2,3,5,10b-tetraaza-benzo[e]azulene hydrochloride] | 2.95
16 | CC(C)c1nc([C@H]2CC[C@@H](c3nnc4n3-c3ccc(Cl)cc3CN(C)C4)CC2)no1 [Example 96] | 0.204
17 | Cc1nc([C@H]2CC[C@H](c3nnc4n3-c3ccc(Cl)cc3CN(C(=O)OC(C)(C)C)C4)CC2)oc1Cl [Example 98, trans-8-Chloro-1-[4-(5-chloro-4-methyl-oxazol-2-yl)-cyclohexyl]-4H,6H-2,3,5,10b-tetraaza-benzo[e]azulene-5-carboxylic acid tert-butyl ester] | 0.0011
18 | Cc1nc([C@H]2CC[C@H](c3nnc4n3-c3ccc(Cl)cc3CNC4)CC2)oc1Cl [Example 99, trans-8-Chloro-1-[4-(5-chloro-4-methyl-oxazol-2-yl)-cyclohexyl]-5,6-dihydro-4H-2,3,5,10b-tetraaza-benzo[e]azulene] | 0.00537
19 | Cc1nc([C@H]2CC[C@H](c3nnc4n3-c3ccc(Cl)cc3CN(C)C4)CC2)oc1Cl [Example 100, trans-8-Chloro-1-[4-(5-chloro-4-methyl-oxazol-2-yl)-cyclohexyl]-5-methyl-5,6-dihydro-4H-2,3,5,10b-tetraaza-benzo[e]azulene] | 0.0011
20 | Cc1nc([C@H]2CC[C@H](c3nnc4n3-c3ccc(Cl)cc3CN(C(=O)OC(C)(C)C)C4)CC2)sc1Cl [Example 101, trans-8-Chloro-1-[4-(5-chloro-4-methyl-thiazol-2-yl)-cyclohexyl]-4H,6H-2,3,5,10b-tetraaza-benzo[e]azulene-5-carboxylic acid tert-butyl ester] | 0.00129
21 | Cc1nc([C@H]2CC[C@H](c3nnc4n3-c3ccc(Cl)cc3CNC4)CC2)sc1Cl [Example 102, trans-8-Chloro-1-[4-(5-chloro-4-methyl-thiazol-2-yl)-cyclohexyl]-5,6-dihydro-4H-2,3,5,10b-tetraaza-benzo[e]azulene] | 0.0038
22 | Cc1nc([C@H]2CC[C@H](c3nnc4n3-c3ccc(Cl)cc3CN(C)C4)CC2)sc1Cl [Example 103, trans-8-Chloro-1-[4-(5-chloro-4-methyl-thiazol-2-yl)-cyclohexyl]-5-methyl-5,6-dihydro-4H-2,3,5,10b-tetraaza-benzo[e]azulene] | 0.00158
23 | Cc1nc([C@H]2CC[C@H](c3nnc4n3-c3ccc(Cl)cc3CN(C(=O)OC(C)(C)C)C4)CC2)sc1C [Example 104, trans-8-Chloro-1-[4-(4,5-dimethyl-thiazol-2-yl)-cyclohexyl]-4H,6H-2,3,5,10b-tetraaza-benzo[e]azulene-5-carboxylic acid tert-butyl ester] | 0.000794
24 | Cc1nc([C@H]2CC[C@H](c3nnc4n3-c3ccc(Cl)cc3CNC4)CC2)sc1C [Example 105, trans-8-Chloro-1-[4-(4,5-dimethyl-thiazol-2-yl)-cyclohexyl]-5,6-dihydro-4H-2,3,5,10b-tetraaza-benzo[e]azulene] | 0.0219
